Data on 26 molecules can be found in PubChem BioAssay (NCI).

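Each compound was tested at five concentrations against cells in 96-well plates for 48 hours. TGI marks complete inhibition of growth.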 Where a SMILES comes first, the peptide text is derived from it. The star is where a group is joined. Cbz = O=C(OCc1ccccc1)*; Boc = CC(C)(C)OC(=O)*; OSu = O=C1CCC(=O)N1O*; Bn = c1ccc(C*)cc1 Some results are limits rather than exact numbers.

Holding throughout (assay): DTP human tumour cell line panel, 48 h
Test [1] has as its system 786-0 renal.
Test [2] deals with A498 renal.
The test system of test [3] is COLO 205 colon.
In test [4] the test system is EKVX NSCLC.
Test [5] deals with HCC-2998 colon.
In test [6] the test system is IGROV1 ovarian.
Test [7] deals with K-562 leukemia.
For test [8], the system named is MOLT-4 leukemia.
The test system of test [9] is NCI-H522 lung.
Test [10] has as its system SNB-75 CNS.
For test [11], the system named is UACC-62 melanoma.
Test [12] concerns MCF7 breast.

For orientation: TGI means the concentration giving total growth inhibition. Low readings indicate more potent growth arrest, high ones less potent growth arrest. Regarding `COC(=O)CC1CC2(C(=O)OC)c3[nH]c4ccccc4c3CCN2C1=O` (stereo not drawn), the TGI in test [1], in test [2], in test [3], in test [4], in test [5] and in [6] was over 100 µM throughout. The TGI in [7], in [8], in test [9], in test [10] and in [11] was over 100 µM each time.
As for `O=C1/C(=C/c2ccc(Cl)cc2)Oc2ccccc21`, the TGI in [1] was 29.7 µM; in test [3], over 100 µM; in test [4], 46.1 µM; in [5], over 100 µM; in test [7], over 100 µM; in test [12] it was over 100 µM. Further, the total growth inhibition concentration (TGI) in [8] was over 100 µM; in test [9] it was 34.5 µM; in test [10] it was 98.5 µM; in test [11], over 100 µM.
`CC(=O)NN(c1ccccc1)C1CCN(c2ccccc2)N1C(C)=O` (stereo not drawn): the TGI in test [1] is over 10 µM; in test [3], over 10 µM; in test [4] it was over 10 µM; in [5], over 10 µM; in [6], over 10 µM; in test [7], 7.65 µM. The TGI in test [12], in test [8], in test [9] and in test [10] was over 10 µM each time.
On to `Cc1ccc(NC(=O)C(=O)Cc2cccc[n+]2[O-])cc1C`, for which the TGI in test [1], in [2], in [3], in [4], in test [5] and in test [6] was over 100 µM in each case. In addition, the TGI in test [7], in test [8], in test [9], in test [10] and in [11] was over 100 µM throughout.
On to `N#Cc1c(N)nc(Sc2ccccc2N)c(C#N)c1-c1ccccc1`, for which the TGI is 63.3 µM in [1]; over 100 µM in test [3]; over 100 µM in test [4]; 38.3 µM in test [5]; over 100 µM in [6]; over 100 µM in test [7]. The TGI in [12] was 49.8 µM; in [8], over 100 µM; in [11] it was 26.6 µM.
For `CC1=CCN(c2ccccn2)OC1c1ccccc1` (stereo not drawn), the concentration for total growth inhibition (TGI) in test [1], in test [3], in test [4], in test [5], in [6] and in [7] was over 100 µM throughout. Moreover, the total growth inhibition concentration (TGI) in test [8], in [9], in test [10] and in test [11] was over 100 µM throughout.
For `Cc1nc(Cc2n[nH]c(C)n2)n[nH]1`, the TGI in [1], in test [3], in test [4], in test [5], in [6] and in test [7] was over 100 µM throughout. The total growth inhibition concentration (TGI) in [12], in [8], in [9], in test [10] and in test [11] was over 100 µM throughout.
On to `CCCCCCCCCCCCC1N=C(N)N2CCCC2=C1C(=O)OC` (stereo not drawn), for which the TGI in [1] was 3.04 µM; in test [2], 47.1 µM; in test [3] it was 4.17 µM; in [4], 35.4 µM; in [5], 3.25 µM; in test [6], 7.94 µM. The TGI in test [7] is 2.91 µM; in test [8] it was 4.22 µM; in test [9], 3.26 µM; in test [10], 3.05 µM; in test [11], 3.36 µM.
Take `Cc1ccccc1Nc1nc2ccccc2nc1NS(=O)(=O)c1ccccc1`: the TGI in test [1], in [3], in test [4], in test [5], in test [6] and in [7] was over 100 µM throughout. The TGI in test [12], in test [8], in [9], in test [10] and in test [11] was over 100 µM each time.
Turning to `Cn1c(NC(=O)NC23CC4CC(CC(C4)C2)C3)nc2ccccc21`, the TGI in test [1] is 81.5 µM; in test [3], over 100 µM; in [4], over 100 µM; in test [5], over 100 µM; in test [6], over 100 µM; in [7] it was over 100 µM. In addition, the TGI in [8] is over 100 µM; in test [9], over 100 µM; in test [10], 21.1 µM; in test [11], over 100 µM.
`COc1ccc(/C=N/Nc2nnc3c(n2)c2ccccc2c2nn(-c4ccccc4Cl)nc23)cc1`: the TGI in test [1], in [2], in test [3], in [4], in test [6] and in test [7] was over 100 µM each time. Besides, the TGI in test [8], in [9], in test [10] and in test [11] was over 100 µM in each case.
Take `CC(C)=CC(=O)c1c(C(=O)O)nc2ccccc2[n+]1[O-]`: the TGI in test [1], in test [2], in test [3], in test [4], in [5] and in [6] was over 100 µM throughout. Moreover, the TGI in [7], in test [8], in test [10] and in test [11] was over 100 µM in each case.
For `c1ccc(-c2c(-c3[nH]c4ccccc4c3-c3ccccc3)[nH]c3ccccc23)cc1`, the total growth inhibition concentration (TGI) worked out at 4.08 µM in test [1]; 3.53 µM in [3]; 14.1 µM in test [4]; 3.94 µM in test [5]; 16.3 µM in test [6]; 36.8 µM in test [7]. Further, the TGI in [12] is 11.9 µM; in test [8], 13.3 µM; in test [9] it was 14.6 µM; in test [10], 14.9 µM; in test [11], 21.6 µM.
As for `C[n+]1c2ccccc2c(C(=O)Nc2ccc(S(=O)(=O)Nc3ncccn3)cc2)c2ccccc21`, the TGI in test [1], in [3], in test [4], in test [5], in test [6] and in test [7] was over 100 µM in each case. In addition, the TGI in [12], in test [8], in test [10] and in [11] was over 100 µM in each case.
In the case of `O=CC1=CCC2c3[nH]c4ccccc4c3CCN2C1` (stereo not drawn), the TGI is over 396 µM in [1]; over 396 µM in test [3]; over 396 µM in [4]; 253 µM in test [5]; over 396 µM in [6]; over 396 µM in test [7]. In addition, the TGI in test [8], in test [9] and in test [11] was over 396 µM in each case.
`Clc1ccc(C2=NCON=C2c2ccc(Cl)cc2)cc1`: the TGI turned out to be 42.7 µM in test [1]; 29.9 µM in test [3]; 45.3 µM in [4]; 32.7 µM in test [5]; 55 µM in test [7]; 85.6 µM in test [12]. Besides, the TGI in test [8] amounted to 42.9 µM; in test [10], 74.2 µM; in test [11] it was 37.8 µM.
Turning to `COC1OC(C(=O)O)C2OC(C)(C)OC12` (stereo not drawn), the TGI in test [1], in [3], in test [4], in test [5], in test [6] and in [7] was over 100 µM each time. Also, the TGI in [12], in [8], in [9], in test [10] and in test [11] was over 100 µM each time.
`O=c1[nH]c2ccc([N+](=O)[O-])cc2nc1/C(=N/Nc1ccccc1)C(O)c1ccco1` (stereo not drawn): the TGI in [1], in test [3], in test [4], in [5], in [6] and in test [7] was over 100 µM in each case. The TGI in test [8] is over 100 µM; in test [9], 96.5 µM; in [10] it was over 100 µM; in test [11], over 100 µM.
For `CC(=O)N1c2cc(N=NN(C)C)ccc2NC(=O)CC1C` (stereo not drawn), the TGI in test [1], in test [3], in test [4], in test [5], in test [6] and in test [7] was over 100 µM in each case. The TGI in test [12], in [8], in [9], in test [10] and in test [11] was over 100 µM in each case.
On to `CC(C)(C)OC(=O)NC(Cc1ccc(OCc2ccccc2)cc1)C(=O)NC(CCCCNC(=O)OCc1ccccc1)C(=O)NC(CCCCNC(=O)OCc1ccccc1)C(=O)ON1C(=O)CCC1=O` (stereo not drawn) (Boc-Tyr(Bn)-Lys(Cbz)-Lys(Cbz)-OSu; configuration not given here), for which the TGI in [1] is 37.1 µM; in test [3], over 100 µM; in test [4], over 100 µM; in [6], over 100 µM; in [12], 39.3 µM; in [8], over 100 µM. In addition, the TGI in test [9] was 39.7 µM; in [10], over 100 µM; in test [11], 34.6 µM.
In the case of `O=C(O)/C=C/c1ccncc1`, the TGI in test [1], in [2], in test [3], in test [4], in test [5] and in [6] was over 100 µM throughout. Further, the TGI in [7], in test [8], in test [9], in [10] and in [11] was over 100 µM in each case.
With `O=C(c1ccccc1)c1cc(Cl)ccc1NCn1nnc2ccccc21`, the TGI in test [1], in test [2], in test [3], in test [4], in [5] and in test [6] was over 100 µM in each case. For the same molecule, the TGI in test [7], in [8], in test [9], in test [10] and in test [11] was over 100 µM in each case.
In the case of `O=S(=O)(O)c1cc(O)c(N=Nc2ccc3ccccc3c2O)c2ccccc12`, the TGI is over 100 µM in [1]; over 100 µM in [3]; over 100 µM in test [4]; 32.3 µM in [6]; 74.6 µM in test [7]; 97 µM in [8]. The values for the TGI in [9], in test [10] and in [11] were 40.2 µM, 79.1 µM and 42.3 µM, respectively.
On to `CCOC(=O)c1c(-c2ccccc2)c(C)cn1C`, for which the TGI in [1], in test [4], in test [6], in test [7], in test [8] and in test [9] was over 10 µM each time. Also, the TGI in test [10] and in test [11] was over 10 µM in each case.
`COc1cc2c(cc1OC)C(=O)/C(=C/c1ccc(N(C)C)cc1)CC2`: the total growth inhibition concentration (TGI) in test [1], in test [3], in [4], in test [5], in test [6] and in test [7] was over 10 µM in each case. The TGI in test [12], in test [8] and in test [11] was over 10 µM throughout.
Turning to `C(=C\c1c2oc(-c3ccccc3)cc(-c3ccccc3)c-2c2ccccc12)/C=C1\c2ccccc2-c2c(-c3ccccc3)cc(-c3ccccc3)[o+]c21`, the TGI in test [1], in test [2], in [3], in test [4], in test [5] and in test [6] was over 100 µM throughout. The TGI in test [7], in test [8], in test [9], in [10] and in test [11] was over 100 µM in each case.
